EC50 data for 24 compounds are collected here from patent US11254663B2 (BRISTOL-MYERS SQUIBB COMPANY, priority 2019, dated 2022).

For the experiment, the target named is FXR (Homo sapiens (Human), UniProt Q96RI1). The experiment in a line: transient human FXR/Gal4-luciferase reporter assay. In kind it is cell-based. Put shortly:
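HEK293 cells stably carrying a 5×Gal4 response element–firefly luciferase reporter were transiently transfected overnight with a Gal4 DBD–human FXR LBD fusion plasmid. Compound was added in DMSO and cells were incubated overnight at 37 °C, 5% CO2. Activity was read as Steady-Glo luminescence.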
Background: A reporter such as luciferase makes a cellular process visible.

[1] abbreviates: Gal4-hFXR fusion construct, HEK293 reporter cells, response relative to 8 μM GW-4064.

Like-named read-outs stand apart in the source and are kept apart here.

As a reminder, the EC50 is the midpoint of the concentration-response curve.

Sequence of FXR (Q96RI1 262-486): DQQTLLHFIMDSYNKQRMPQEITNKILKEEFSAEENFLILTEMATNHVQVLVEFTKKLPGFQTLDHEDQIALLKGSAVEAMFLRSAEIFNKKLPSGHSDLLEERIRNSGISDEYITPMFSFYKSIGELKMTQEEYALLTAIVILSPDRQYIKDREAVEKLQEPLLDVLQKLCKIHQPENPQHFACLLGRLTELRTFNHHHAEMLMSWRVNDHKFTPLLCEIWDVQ

Consider `CCOc1cnc(-c2cccc(N(CC34CCC(c5noc(C(C)(C)C)n5)(CC3)CC4)C(=O)C34CC(F)(C3)C4)c2)nc1` [Example 451, N-((4-(5-(tert-butyl)-1,2,4-oxadiazol-3-yl)bicyclo[2.2.2]octan-1-yl)methyl)-N-(3-(5-ethoxypyrimidin-2-yl)phenyl)-3-fluorobicyclo[1.1.1]pentane-1-carboxamide], for which, under setting [1], the EC50 is 47 nM.

`O=C(N(CC12CCC(c3cc(C(F)(F)F)ccn3)(CC1)CC2)c1cccc(-c2ccc(NS(=O)(=O)C3CC3)cc2)c1)C12CC(F)(C1)C2` [Example 354, N-(4′-(Cyclopropanesulfonamido)-[1,1′-biphenyl]-3-yl)-3-fluoro-N-((4-(4-(trifluoromethyl)pyridin-2-yl)bicyclo[2.2.2]octan-1-yl)methyl)bicyclo[1.1.1]pentane-1-carboxamide]: the EC50 under setting [1] was 489 nM.

Compound `CC(C)(O)c1ccc(-c2cccc(N(CC34CCC(c5noc(C(C)(C)F)n5)(CC3)CC4)C(=O)N3CCN(CC(F)(F)F)CC3)c2)cc1` [Example 645] came in with an EC50 of 229 nM.

Compound `Cc1nc2ccc(-c3cccc(N(CC45CCC(c6noc(C(F)F)n6)(CC4)CC5)C(=O)C45CC(F)(C4)C5)c3)cc2s1` [Example 462, N-((4-(5-(difluoromethyl)-1,2,4-oxadiazol-3-yl)bicyclo[2.2.2]octan-1-yl)methyl)-3-fluoro-N-(3-(2-methylbenzo[d]thiazol-6-yl)phenyl)bicyclo[1.1.1]pentane-1-carboxamide] came in with an EC50 of 107 nM.

Regarding `CCOc1ccc(-c2cccc(N(CC34CCC(c5nc(C(C)(C)C)no5)(CC3)CC4)C(=O)C34CC(F)(C3)C4)c2)cc1` [Example 359, N-((4-(3-(tert-butyl)-1,2,4-oxadiazol-5-yl)bicyclo[2.2.2]octan-1-yl)methyl)-N-(4′-ethoxy-[1,1′-biphenyl]-3-yl)-3-fluorobicyclo[1.1.1]pentane-1-carboxamide], a half-maximal effect under setting [1] (EC50) was put at 151 nM. In other words, the sub-micromolar range.

The compound `O=C(N(CC12CCC(c3ccc(C(F)(F)F)cn3)(CC1)CC2)c1cccc(-c2cnc(C(F)(F)F)nc2)c1)C12CC(F)(C1)C2` [Example 491, 3-fluoro-N-((4-(5-(trifluoromethyl)pyridin-2-yl)bicyclo[2.2.2]octan-1-yl)methyl)-N-(3-(2-(trifluoromethyl)pyrimidin-5-yl)phenyl)bicyclo[1.1.1]pentane-1-carboxamide] displayed an EC50 of 1630 nM.

As for `COc1cc(-c2cccc(N(CC34CCC(c5cc(C(F)(F)F)ccn5)(CC3)CC4)C(=O)C3CCC3)c2)ccn1` [Example 240, N-(3-(2-methoxypyridin-4-yl)phenyl)-N-((4-(4-(trifluoromethyl)pyridin-2-yl)bicyclo[2.2.2]octan-1-yl)methyl)cyclobutanecarboxamide], the EC50 under setting [1] came to 2130 nM.

“N-((4-(3-cyclopropyl-1,2,4-oxadiazol-5-yl)bicyclo[2.2.2]octan-1-yl)methyl)-3-fluoro-N-(3-morpholinophenyl)bicyclo[1.1.1]pentane-1-carboxamide [Example 417]” displayed an EC50 under setting [1] of 207 nM.

For the compound `Cc1nc2ccc(-c3cccc(N(CC45CCC(c6nc(C(C)C)no6)(CC4)CC5)C(=O)C45CC(F)(C4)C5)c3)cc2s1` [Example 378, 3-fluoro-N-((4-(3-isopropyl-1,2,4-oxadiazol-5-yl)bicyclo[2.2.2]octan-1-yl)methyl)-N-(3-(2-methylbenzo[d]thiazol-6-yl)phenyl)bicyclo[1.1.1]pentane-1-carboxamide], the EC50 under setting [1] was 53 nM. This EC50 is about 3.9-fold lower than that of the compound before.

`CC(C)(O)c1ccc(-c2cccc(N(CC34CCC(c5noc(C(C)(C)F)n5)(CC3)CC4)C(=O)N3CC(O)(C(F)(F)F)C3)c2)cc1` [Example 643, N-((4-(5-(2-fluoropropan-2-yl)-1,2,4-oxadiazol-3-yl)bicyclo[2.2.2]octan-1-yl)methyl)-3-hydroxy-N-(4′-(2-hydroxypropan-2-yl)-[1,1′-biphenyl]-3-yl)-3-(trifluoromethyl)azetidine-1-carboxamide] registered an EC50 of 235 nM.

Compound `Cc1nc2ccc(-c3cccc(N(CC45CCC(c6nc(C7CC7)no6)(CC4)CC5)C(=O)C45CC(F)(C4)C5)c3)cc2s1` [Example 555, N-((4-(3-cyclopropyl-1,2,4-oxadiazol-5-yl)bicyclo[2.2.2]octan-1-yl)methyl)-3-fluoro-N-(3-(2-methylbenzo[d]thiazol-6-yl)phenyl)bicyclo[1.1.1]pentane-1-carboxamide] returned an EC50 of 55 nM.

On to `CCOc1ncc(-c2cncc(N(CC34CCC(c5nc(C6CC6)no5)(CC3)CC4)C(=O)C34CC(F)(C3)C4)c2)cn1` [Example 423, N-((4-(3-cyclopropyl-1,2,4-oxadiazol-5-yl)bicyclo[2.2.2]octan-1-yl)methyl)-N-(5-(2-ethoxypyrimidin-5-yl)pyridin-3-yl)-3-fluorobicyclo[1.1.1]pentane-1-carboxamide], for which the EC50 under setting [1] worked out at 238 nM.

`COc1ccc(-c2cccc(N(CC34CCC(c5cc(C6CC6)n(C)n5)(CC3)CC4)C(=O)C34CC(F)(C3)C4)c2)cc1` [Example 408, N-((4-(5-cyclopropyl-1-methyl-1H-pyrazol-3-yl)bicyclo[2.2.2]octan-1-yl)methyl)-3-fluoro-N-(4′-methoxy-[1,1′-biphenyl]-3-yl)bicyclo[1.1.1]pentane-1-carboxamide] displayed an EC50 under setting [1] of 160 nM.

`Cc1nc2cc(-c3cccc(N(CC45CCC(c6nc(C7CC7)no6)(CC4)CC5)C(=O)C45CC(F)(C4)C5)c3)ccc2s1` [Example 303, N-((4-(3-cyclopropyl-1,2,4-oxadiazol-5-yl)bicyclo[2.2.2]octan-1-yl)methyl)-3-fluoro-N-(3-(2-methylbenzo[d]thiazol-5-yl)phenyl)bicyclo[1.1.1]pentane-1-carboxamide] had an EC50 under setting [1] of 349 nM.

Compound `COCc1ccc(-c2cccc(N(CC34CCC(c5nc(C(C)C)no5)(CC3)CC4)C(=O)C34CC(F)(C3)C4)c2)cc1` [Example 392, 3-fluoro-N-((4-(3-isopropyl-1,2,4-oxadiazol-5-yl)bicyclo[2.2.2]octan-1-yl)methyl)-N-(4′-(methoxymethyl)-[1,1′-biphenyl]-3-yl)bicyclo[1.1.1]pentane-1-carboxamide] gave an EC50 under setting [1] of 183 nM.

As for `CCOc1ccc(-c2cccc(N(CC34CCC(c5noc(C6(C)CC6)n5)(CC3)CC4)C(=O)C34CC(F)(C3)C4)c2)cn1` [Example 401, N-(3-(6-ethoxypyridin-3-yl)phenyl)-3-fluoro-N-((4-(5-(1-methylcyclopropyl)-1,2,4-oxadiazol-3-yl)bicyclo[2.2.2]octan-1-yl)methyl)bicyclo[1.1.1]pentane-1-carboxamide], a half-maximal response under setting [1] (EC50) required 42 nM.

Turning to `CS(=O)(=O)Nc1ccc(-c2cccc(N(CC34CCC(c5nc(C6CC6)no5)(CC3)CC4)C(=O)C34CC(F)(C3)C4)c2)cc1` [Example 246, N-((4-(3-cyclopropyl-1,2,4-oxadiazol-5-yl)bicyclo[2.2.2]octan-1-yl)methyl)-3-fluoro-N-(4′-(methylsulfonamido)-[1,1′-biphenyl]-3-yl)bicyclo[1.1.1]pentane-1-carboxamide], the EC50 under setting [1] amounted to 66 nM.

Consider `O=C(N(CC12CCC(c3nc(C4CC4)no3)(CC1)CC2)c1cccc(-c2ccc(C(F)(F)F)nc2)c1)C12CC(F)(C1)C2` [Example 280, N-((4-(3-cyclopropyl-1,2,4-oxadiazol-5-yl)bicyclo[2.2.2]octan-1-yl)methyl)-3-fluoro-N-(3-(6-(trifluoromethyl)pyridin-3-yl)phenyl)bicyclo[1.1.1]pentane-1-carboxamide], for which a half-maximal effect under setting [1] (EC50) was put at 308 nM.

Regarding `CC(C)(C)c1nc(C23CCC(CN(C(=O)C45CC(F)(C4)C5)c4cccc(-c5ncc(OC(F)F)cn5)c4)(CC2)CC3)no1` [Example 452, N-((4-(5-(tert-butyl)-1,2,4-oxadiazol-3-yl)bicyclo[2.2.2]octan-1-yl)methyl)-N-(3-(5-(difluoromethoxy)pyrimidin-2-yl)phenyl)-3-fluorobicyclo[1.1.1]pentane-1-carboxamide], the EC50 under setting [1] came out at 17 nM.

Under setting [1], `CC(C)(C)NC(=O)N(CC12CCC(c3noc(C(F)(F)F)n3)(CC1)CC2)c1cccc(-c2ccc(C(C)(C)O)cc2)c1` [Example 611, 3-(tert-butyl)-1-(4′-(2-hydroxypropan-2-yl)-[1,1′-biphenyl]-3-yl)-1-((4-(5-(trifluoromethyl)-1,2,4-oxadiazol-3-yl)bicyclo[2.2.2]octan-1-yl)methyl) urea] gave an EC50 of 41 nM. Against the preceding compound, the EC50 is about 2.4-fold higher.

Turning to `CC(C)c1noc(C23CCC(CN(C(=O)C45CC(F)(C4)C5)c4cccc(-c5cnc(C6CC6)nc5)c4)(CC2)CC3)n1` [Example 385, N-(3-(2-cyclopropylpyrimidin-5-yl)phenyl)-3-fluoro-N-((4-(3-isopropyl-1,2,4-oxadiazol-5-yl)bicyclo[2.2.2]octan-1-yl)methyl)bicyclo[1.1.1]pentane-1-carboxamide], the EC50 under setting [1] was found to be 35 nM.

In the case of `O=C(N(CC12CCC(c3nc(C4CC4)no3)(CC1)CC2)c1cccc(-c2ccc(F)cn2)c1)C12CC(F)(C1)C2` [Example 287, N-((4-(3-cyclopropyl-1,2,4-oxadiazol-5-yl)bicyclo[2.2.2]octan-1-yl)methyl)-3-fluoro-N-(3-(5-fluoropyridin-2-yl)phenyl)bicyclo[1.1.1]pentane-1-carboxamide], under setting [1], the EC50 turned out to be 316 nM.

For the compound `CC(C)(C)c1nc(C23CCC(CN(C(=O)C45CC(F)(C4)C5)c4cncc(-c5ccc(NS(C)(=O)=O)cc5)c4)(CC2)CC3)no1` [Example 481, N-((4-(5-(tert-butyl)-1,2,4-oxadiazol-3-yl)bicyclo[2.2.2]octan-1-yl)methyl)-3-fluoro-N-(5-(4-(methylsulfonamido)phenyl)pyridin-3-yl)bicyclo[1.1.1]pentane-1-carboxamide], a half-maximal effect (EC50) was put at 580 nM. In other words, the sub-micromolar range.

`COc1ccc(-c2cccc(N(CC34CCC(c5cc(C6CC6)nn5C)(CC3)CC4)C(=O)C34CC(F)(C3)C4)c2)cc1` [Example 414, N-((4-(3-cyclopropyl-1-methyl-1H-pyrazol-5-yl)bicyclo[2.2.2]octan-1-yl)methyl)-3-fluoro-N-(4′-methoxy-[1,1′-biphenyl]-3-yl)bicyclo[1.1.1]pentane-1-carboxamide]: the EC50 under setting [1] worked out at 85 nM. This counts as double-digit nanomolar.
